Laboratory results from patent US11053204B2, “Pyrimidinyloxy benzene derivatives as herbicides” (FMC Corporation, priority 2015, dated 2021).

Experiments:
Format in all cases: in vivo
[1] = tested on: Italian ryegrass (Lolium multiflorum); assay: Test A preemergence, visual injury rating; conditions: 0 to 100 scale (0 no effect, 100 complete control)
In short: (§1)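 Visual injury scored 0–100 (100 = complete control) against untreated controls about 10 days after treatment in a greenhouse. Test chemicals, formulated with surfactant in non-phytotoxic solvent, were sprayed on soil preemergence or on 2-10 cm, one- to two-leaf plants postemergence.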

[2] = tested on: barnyardgrass (Echinochloa crus-galli); assay: Test A preemergence, visual injury rating; conditions: 0 to 100 scale (0 no effect, 100 complete control)
In short: as §1

[3] = tested on: giant foxtail (Setaria faberii); assay: Test A preemergence, visual injury rating; conditions: 0 to 100 scale (0 no effect, 100 complete control)
In short: as §1

kochia (Kochia scoparia) [4] = assay: Test A preemergence, visual injury rating; conditions: 0 to 100 scale (0 no effect, 100 complete control)
In short: as §1

[5] = tested on: pigweed (Amaranthus retroflexus); assay: Test A preemergence, visual injury rating; conditions: 0 to 100 scale (0 no effect, 100 complete control)
In short: as §1

[6] = tested on: ragweed (common ragweed, Ambrosia elatior); assay: Test A preemergence, visual injury rating; conditions: 0 to 100 scale (0 no effect, 100 complete control)
In short: as §1

[7] = tested on: Italian ryegrass (Lolium multiflorum); assay: Test A postemergence, visual injury rating; conditions: 0 is no effect, 100 is complete control
Text: (§2) Seeds of plant species selected from barnyardgrass (Echinochloa crus-galli), kochia (Kochia scoparia), ragweed (common ragweed, Ambrosia elatior), Italian ryegrass (Lolium multiflorum), large (Lg) crabgrass (Digitaria sanguinalis), giant foxtail (Setaria faberii), morningglory (Ipomoea spp.), pigweed (Amaranthus retroflexus), velvetleaf (Abutilon theophrasti), wheat (Triticum aestivum), and corn (Zea mays) were planted into a blend of loam soil and sand and treated preemergence with a directed soil spray using test chemicals formulated in a non-phytotoxic solvent mixture which included a surfactant.
(§3) At the same time, plants selected from these crop and weed species and also blackgrass (Alopecurus myosuroides), and galium (catchweed bedstraw, Galium aparine) were planted in pots containing the same blend of loam soil and sand and treated with postemergence applications of test chemicals formulated in the same manner. Plants ranged in height from 2 to 10 cm and were in the one- to two-leaf stage for the postemergence treatment. Treated plants and untreated controls were maintained in a greenhouse for approximately 10 days, after which time all treated plants were compared to untreated controls and visually evaluated for injury. Plant response ratings, summarized in Table A, are based on a 0 to 100 scale where 0 is no effect and 100 is complete control. A dash (-) response means no test result.

[8] = tested on: barnyardgrass (Echinochloa crus-galli); assay: Test A postemergence, visual injury rating; conditions: 0 is no effect, 100 is complete control
Text: as §2, §3

[9] = tested on: blackgrass (Alopecurus myosuroides); assay: Test A postemergence, visual injury rating; conditions: 0 is no effect, 100 is complete control
Text: as §2, §3

corn (Zea mays) = assay: Test A postemergence, visual injury rating; conditions: 0 is no effect, 100 is complete control
Text: as §2, §3

[10] = tested on: galium (catchweed bedstraw, Galium aparine); assay: Test A postemergence, visual injury rating; conditions: 0 is no effect, 100 is complete control
Text: as §2, §3

[11] = tested on: giant foxtail (Setaria faberii); assay: Test A postemergence, visual injury rating; conditions: 0 is no effect, 100 is complete control
Text: as §2, §3

kochia (Kochia scoparia) [12] = assay: Test A postemergence, visual injury rating; conditions: 0 is no effect, 100 is complete control
Text: as §2, §3

[13] = tested on: pigweed (Amaranthus retroflexus); assay: Test A postemergence, visual injury rating; conditions: 0 is no effect, 100 is complete control
Text: as §2, §3

[14] = tested on: ragweed (common ragweed, Ambrosia elatior); assay: Test A postemergence, visual injury rating; conditions: 0 is no effect, 100 is complete control
Text: as §2, §3

[15] = tested on: wheat (Triticum aestivum); assay: Test A postemergence, visual injury rating; conditions: 0 is no effect, 100 is complete control
Text: as §2, §3

[16] = tested on: barnyardgrass (Echinochloa crus-galli); assay: Test B flooded paddy test, plant response rating; conditions: 250 g ai/ha; Flood; scale of 0 to 100 where 0 is no effect and 100 is complete control; 13 to 15 days
In short: (§4)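 Compound was added to standing water 3 cm above soil, flood maintained, and plants held in a greenhouse before visual scoring against controls at 13 to 15 days.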

[17] = tested on: ducksalad (Heteranthera limosa); assay: Test B flooded paddy test, plant response rating; conditions: 250 g ai/ha; Flood; scale of 0 to 100 where 0 is no effect and 100 is complete control; 13 to 15 days
In short: as §4

rice (Oryza sativa) = assay: Test B flooded paddy test, plant response rating; conditions: 250 g ai/ha; Flood; scale of 0 to 100 where 0 is no effect and 100 is complete control; 13 to 15 days
In short: as §4

[18] = tested on: sedge, umbrella (small-flower umbrella sedge, Cyperus difformis); assay: Test B flooded paddy test, plant response rating; conditions: 250 g ai/ha; Flood; scale of 0 to 100 where 0 is no effect and 100 is complete control; 13 to 15 days
In short: as §4

Structure (SMILES)	Ryegrass, Italian plant response rating ([1]; 125 g ai/ha)	Ryegrass, Italian plant response rating ([1]; 500 g ai/ha)	Barnyardgrass plant response rating ([2]; 125 g ai/ha)	Barnyardgrass plant response rating ([2]; 500 g ai/ha)	Foxtail, Giant plant response rating ([3]; 125 g ai/ha)	Foxtail, Giant plant response rating ([3]; 500 g ai/ha)	Kochia plant response rating (kochia (Kochia scoparia) [4]; 125 g ai/ha)	Kochia plant response rating (kochia (Kochia scoparia) [4]; 500 g ai/ha)	Pigweed plant response rating ([5]; 125 g ai/ha)	Pigweed plant response rating ([5]; 500 g ai/ha)	Ragweed plant response rating ([6]; 125 g ai/ha)	Ragweed plant response rating ([6]; 500 g ai/ha)	Ryegrass, Italian plant response rating (0 to 100 scale) ([7]; 125 g ai/ha)	Ryegrass, Italian plant response rating (0 to 100 scale) ([7]; 500 g ai/ha)	Barnyardgrass plant response rating (0 to 100 scale) ([8]; 125 g ai/ha)	Barnyardgrass plant response rating (0 to 100 scale) ([8]; 500 g ai/ha)	Blackgrass plant response rating (0 to 100 scale) ([9]; 125 g ai/ha)	Blackgrass plant response rating (0 to 100 scale) ([9]; 500 g ai/ha)	Corn plant response rating (0 to 100 scale) (corn (Zea mays); 125 g ai/ha)	Corn plant response rating (0 to 100 scale) (corn (Zea mays); 500 g ai/ha)	other results
O=C(OCC1CCC1)c1c(Br)cccc1Oc1ncc(Cl)cn1 [Compound 8]	0	30	30	100	100	100	0	0	10	60	0	0	0	30	10	40	0	20	0	20	Galium plant response rating (0 to 100 scale) ([10]; 125 g ai/ha): 60; Galium plant response rating (0 to 100 scale) ([10]; 500 g ai/ha): 90; Foxtail, Giant plant response rating (0 to 100 scale) ([11]; 125 g ai/ha): 30; Foxtail, Giant plant response rating (0 to 100 scale) ([11]; 500 g ai/ha): 60; Kochia plant response rating (0 to 100 scale) (kochia (Kochia scoparia) [12]; 125 g ai/ha): 40; Kochia plant response rating (0 to 100 scale) (kochia (Kochia scoparia) [12]; 500 g ai/ha): 80; Pigweed plant response rating (0 to 100 scale) ([13]; 125 g ai/ha): 50; Pigweed plant response rating (0 to 100 scale) ([13]; 500 g ai/ha): 90; Ragweed plant response rating (0 to 100 scale) ([14]; 125 g ai/ha): 10; Ragweed plant response rating (0 to 100 scale) ([14]; 500 g ai/ha): 40; Wheat plant response rating (0 to 100 scale) ([15]; 125 g ai/ha): 0; Wheat plant response rating (0 to 100 scale) ([15]; 500 g ai/ha): 0; Plant response rating, Barnyardgrass [16]: 0; Plant response rating, Ducksalad [17]: 0; Plant response rating, Rice (rice (Oryza sativa)): 0; Plant response rating, Sedge, Umbrella [18]: 70
O=C(OCC1CC1(F)F)c1c(Br)cccc1Oc1ncc(Cl)cn1 (stereo not drawn) [Compound 10]	10	30	40	100	100	100	90	100	100	100	0	0	10	60	20	100	20	90	10	60	Galium plant response rating (0 to 100 scale) ([10]; 125 g ai/ha): 100; Galium plant response rating (0 to 100 scale) ([10]; 500 g ai/ha): 100; Foxtail, Giant plant response rating (0 to 100 scale) ([11]; 125 g ai/ha): 30; Foxtail, Giant plant response rating (0 to 100 scale) ([11]; 500 g ai/ha): 100; Kochia plant response rating (0 to 100 scale) (kochia (Kochia scoparia) [12]; 125 g ai/ha): 90; Kochia plant response rating (0 to 100 scale) (kochia (Kochia scoparia) [12]; 500 g ai/ha): 100; Pigweed plant response rating (0 to 100 scale) ([13]; 125 g ai/ha): 90; Pigweed plant response rating (0 to 100 scale) ([13]; 500 g ai/ha): 100; Ragweed plant response rating (0 to 100 scale) ([14]; 125 g ai/ha): 10; Ragweed plant response rating (0 to 100 scale) ([14]; 500 g ai/ha): 50; Wheat plant response rating (0 to 100 scale) ([15]; 125 g ai/ha): 0; Wheat plant response rating (0 to 100 scale) ([15]; 500 g ai/ha): 40; Plant response rating, Barnyardgrass [16]: 0; Plant response rating, Ducksalad [17]: 80; Plant response rating, Rice (rice (Oryza sativa)): 0; Plant response rating, Sedge, Umbrella [18]: 80
